Experimental data from ChEMBL document CHEMBL5260823, “5-Ene-4-thiazolidinones - An efficient tool in medicinal chemistry” (Eur J Med Chem, 2017).

Assays:
[1] = Inhibition of beta-lactamase P99 (unknown origin) using cephalosporin nitrocefin as substrate preincubated for 10 mins followed by substrate addition by spectrophotometric analysis; parameters: species or system Bacteria
[2] = Inhibition of COX-2 in LPS stimulated mouse J774.A1 cells using arachidonic acid as substrate preincubated for 60 mins followed by substrate addition and measured after 30 mins by EIA analysis; assay type: cell-based
Lethal factor = biological target: T1, Lethal factor (Bacillus anthracis, UniProt P15917); test: Inhibition of Bacillus anthracis anthrax lethal factor using MAPKKide as substrate incubated for 30 mins by fluorescence plate reader analysis
T1 sequence (P15917 whole entry): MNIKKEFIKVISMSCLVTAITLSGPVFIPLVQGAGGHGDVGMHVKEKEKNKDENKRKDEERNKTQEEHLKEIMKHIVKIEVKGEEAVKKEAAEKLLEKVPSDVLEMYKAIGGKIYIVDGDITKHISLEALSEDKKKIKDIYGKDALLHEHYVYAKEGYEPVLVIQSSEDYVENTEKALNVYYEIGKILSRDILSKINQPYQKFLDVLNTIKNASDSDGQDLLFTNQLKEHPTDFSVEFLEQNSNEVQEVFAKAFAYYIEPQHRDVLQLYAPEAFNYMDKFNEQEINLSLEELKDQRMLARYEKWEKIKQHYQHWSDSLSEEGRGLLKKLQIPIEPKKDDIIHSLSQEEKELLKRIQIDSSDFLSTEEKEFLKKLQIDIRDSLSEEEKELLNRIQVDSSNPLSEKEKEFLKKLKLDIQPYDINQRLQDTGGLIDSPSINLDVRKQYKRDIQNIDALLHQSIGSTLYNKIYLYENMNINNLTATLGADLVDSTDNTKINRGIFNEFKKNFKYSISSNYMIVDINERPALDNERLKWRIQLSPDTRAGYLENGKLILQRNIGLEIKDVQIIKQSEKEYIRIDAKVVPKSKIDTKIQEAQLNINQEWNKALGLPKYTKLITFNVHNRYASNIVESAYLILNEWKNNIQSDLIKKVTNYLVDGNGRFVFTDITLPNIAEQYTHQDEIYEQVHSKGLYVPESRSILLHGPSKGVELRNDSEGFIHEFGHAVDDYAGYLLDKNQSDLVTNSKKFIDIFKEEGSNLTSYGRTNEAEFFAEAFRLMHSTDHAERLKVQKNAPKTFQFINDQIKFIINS

Plasmodium falciparum = test: Antimalarial activity against chloroquine sensitive Plasmodium falciparum FCR-3 infected in mouse FM3A cells ssessed as reduction in parasite growth; assay type: functional, organism-based; conditions: FCR-3, FM3A
[3] = biological target: RNA-directed RNA polymerase (Hepacivirus hominis, UniProt O39930); test: Inhibition of Hepatitis C virus NS5B polymerase
RNA-directed RNA polymerase, sequence (O39930 whole entry): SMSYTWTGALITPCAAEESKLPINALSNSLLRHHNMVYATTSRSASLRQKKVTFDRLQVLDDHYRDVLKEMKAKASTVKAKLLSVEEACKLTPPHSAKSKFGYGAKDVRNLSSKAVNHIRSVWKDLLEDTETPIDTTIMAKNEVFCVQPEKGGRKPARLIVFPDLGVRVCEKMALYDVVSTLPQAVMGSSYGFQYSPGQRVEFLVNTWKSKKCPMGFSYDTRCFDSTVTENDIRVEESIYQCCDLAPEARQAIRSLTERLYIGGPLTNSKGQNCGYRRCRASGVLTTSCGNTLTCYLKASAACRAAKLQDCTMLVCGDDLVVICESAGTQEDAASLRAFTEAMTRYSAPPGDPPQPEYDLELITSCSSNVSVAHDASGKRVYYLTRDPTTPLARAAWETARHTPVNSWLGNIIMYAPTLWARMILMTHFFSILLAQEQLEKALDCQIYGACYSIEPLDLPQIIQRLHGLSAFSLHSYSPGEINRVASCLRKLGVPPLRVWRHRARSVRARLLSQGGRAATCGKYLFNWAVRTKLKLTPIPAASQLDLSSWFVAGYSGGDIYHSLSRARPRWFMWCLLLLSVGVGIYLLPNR

[4] = biological target: Dual specificity tyrosine-phosphorylation-regulated kinase 1A (Homo sapiens, UniProt Q13627); test: Inhibition of recombinant human GST-tagged DYRK1A expressed in Escherichia coli using Woodtide as substrate in presence of [gamma-33P] ATP incubated for 30 mins by scintillation counter analysis
B16-F10 = test: Antiproliferative activity against mouse B16-F10 cells assessed as reduction in cell proliferation incubated for 4 days by crystal violet based assay; assay type: functional; conditions: B16-F10, 96 h
[5] = biological target: Serine/threonine-protein kinase PLK1 (Homo sapiens, UniProt P53350); test: Inhibition of full-length His-tagged human PLK1 expressed in baculovirus using biotinylated casein as substrate in presence of [gamma-33P]-ATP by scintillation counter analysis
Serine/threonine-protein kinase PLK1, sequence (P53350 whole entry): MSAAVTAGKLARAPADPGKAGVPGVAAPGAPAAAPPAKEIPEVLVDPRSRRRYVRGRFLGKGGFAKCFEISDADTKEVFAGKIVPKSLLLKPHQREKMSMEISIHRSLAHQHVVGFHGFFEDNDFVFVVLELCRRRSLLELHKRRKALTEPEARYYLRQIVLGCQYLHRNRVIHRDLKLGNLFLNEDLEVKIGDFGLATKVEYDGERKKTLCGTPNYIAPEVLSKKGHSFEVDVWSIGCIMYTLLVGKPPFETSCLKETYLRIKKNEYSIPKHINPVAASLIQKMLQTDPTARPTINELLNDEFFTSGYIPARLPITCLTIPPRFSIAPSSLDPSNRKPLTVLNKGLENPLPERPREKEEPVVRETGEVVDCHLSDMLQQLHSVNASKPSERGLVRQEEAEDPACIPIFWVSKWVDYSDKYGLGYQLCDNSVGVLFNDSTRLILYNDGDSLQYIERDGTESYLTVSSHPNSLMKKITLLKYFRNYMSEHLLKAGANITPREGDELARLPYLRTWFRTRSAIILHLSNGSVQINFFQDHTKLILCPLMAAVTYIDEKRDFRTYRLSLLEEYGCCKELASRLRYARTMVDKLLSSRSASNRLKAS

Caco-2 = test: Antiproliferative activity against human Caco-2 cells assessed as reduction in cell proliferation incubated for 4 days by crystal violet based assay; assay type: functional; conditions: Caco-2, 96 h
DU-145 = test: Antiproliferative activity against human DU-145 cells assessed as reduction in cell proliferation incubated for 4 days by crystal violet based assay; assay type: functional; conditions: DU-145, 96 h
NCI-H460 = test: Antiproliferative activity against human NCI-H460 cells assessed as reduction in cell proliferation incubated for 4 days by crystal violet based assay; assay type: functional; conditions: NCI-H460, 96 h
MCF7 = test: Antiproliferative activity against human MCF7 cells assessed as reduction in cell proliferation incubated for 4 days by crystal violet based assay; assay type: functional; conditions: MCF7, 96 h
HeLa S3 = test: Antiproliferative activity against human HeLa S3 cells assessed as reduction in cell proliferation incubated for 4 days by crystal violet based assay; assay type: functional; conditions: HeLa S3, 96 h
[6] = biological target: T2, Peroxisome proliferator-activated receptor alpha (Homo sapiens, UniProt Q07869); test: Agonist activity against PPAR-alpha (unknown origin)
T2 sequence (Q07869 whole entry): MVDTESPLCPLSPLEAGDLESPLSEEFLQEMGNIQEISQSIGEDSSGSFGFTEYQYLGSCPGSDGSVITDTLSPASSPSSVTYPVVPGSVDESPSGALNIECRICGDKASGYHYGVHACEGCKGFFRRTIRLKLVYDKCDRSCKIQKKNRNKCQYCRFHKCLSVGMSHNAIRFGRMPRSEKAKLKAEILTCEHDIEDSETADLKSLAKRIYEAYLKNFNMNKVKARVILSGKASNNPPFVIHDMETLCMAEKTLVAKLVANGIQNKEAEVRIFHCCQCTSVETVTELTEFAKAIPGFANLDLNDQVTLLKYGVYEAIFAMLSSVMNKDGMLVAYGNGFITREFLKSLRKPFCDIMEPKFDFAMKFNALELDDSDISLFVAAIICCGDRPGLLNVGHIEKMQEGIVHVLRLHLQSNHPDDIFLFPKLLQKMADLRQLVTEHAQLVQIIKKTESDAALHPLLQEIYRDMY

SMILES: O=C1NC(=S)S/C1=C1\C(=O)Nc2ccccc21
- IC50 [1]: 2600 µM

SMILES: CONC1=NC(=O)/C(=C/c2cc(C(C)(C)C)c(O)c(C(C)(C)C)c2)S1
- IC50 [2]: 0.17 µM

SMILES: O=C(O)CN1C(=O)/C(=C/c2ccco2)SC1=S
- IC50 (Lethal factor): 10 µM

SMILES: C=CCn1c(=O)/c(=C2\Sc3ccccc3N2C)s/c1=C\c1cccc[n+]1C
- EC50 (Plasmodium falciparum): 0.012 µM

SMILES: Cc1ccc(S(=O)(=O)NC2=NC(=O)/C(=C/c3ccc(C)o3)S2)cc1
- IC50 [3]: 2 µM

SMILES: COc1ccc(/C=C2\SC(NCCCN3CCN(CCCNC4=NC(=O)/C(=C/c5ccc(OC)cc5)S4)CC3)=NC2=O)cc1
- IC50 [4]: 0.04 µM

SMILES: CCc1ccc(/C=C2/SC(NC(C(=O)O)c3ccc(F)cc3)=NC2=O)o1 (stereo not given)
- IC50 [3]: 3 µM

SMILES: CCn1c(=O)/c(=C/Nc2cccc(CCN3CCCC3)c2)s/c1=C(\C#N)C(=O)NCC(F)(F)F
- IC50 (B16-F10): 0.2 µM
- IC50 [5]: 0.019 µM
- IC50 (Caco-2): 0.2 µM
- IC50 (DU-145): 0.2 µM
- IC50 (NCI-H460): 0.2 µM
- IC50 (MCF7): 0.2 µM
- IC50 (HeLa S3): 0.2 µM

SMILES: CN(C)c1ccc(/C=C/C=C2\S/C(=N\c3ccccc3)N(Cc3ccc(C(=O)O)cc3)C2=O)cc1
- EC50 [6]: 0.044 µM
